Data from the kinase profiling compilation of Christmann-Franck et al. (2016).

How the values were obtained:
Test in all cases: KINOMEscan competition binding
Details in all cases: compound 10.0 µM
AURKA (human) = AURKA (human) (UniProt O14965)
CDK14 (human) = CDK14 (human) (UniProt O94921)
CDK9 (human) = CDK9 (human) (UniProt P50750)
CHUK (human) = CHUK (human) (UniProt O15111)
CLK3 (human) = CLK3 (human) (UniProt P49761)
CSF1R (human) = CSF1R (human) (UniProt P07333)
DSTYK (human) = DSTYK (human) (UniProt Q6XUX3)
EPHA2 (human) = EPHA2 (human) (UniProt P29317)
FLT4 (human) = FLT4 (human) (UniProt P35916)
GSK3B (human) = GSK3B (human) (UniProt P49841)
IKBKB (human) = IKBKB (human) (UniProt O14920)
[1] = target: JAK2 JH1 catalytic (human) (UniProt O60674)
Chain of JAK2 JH1 catalytic (human) (O60674 whole entry, looked up): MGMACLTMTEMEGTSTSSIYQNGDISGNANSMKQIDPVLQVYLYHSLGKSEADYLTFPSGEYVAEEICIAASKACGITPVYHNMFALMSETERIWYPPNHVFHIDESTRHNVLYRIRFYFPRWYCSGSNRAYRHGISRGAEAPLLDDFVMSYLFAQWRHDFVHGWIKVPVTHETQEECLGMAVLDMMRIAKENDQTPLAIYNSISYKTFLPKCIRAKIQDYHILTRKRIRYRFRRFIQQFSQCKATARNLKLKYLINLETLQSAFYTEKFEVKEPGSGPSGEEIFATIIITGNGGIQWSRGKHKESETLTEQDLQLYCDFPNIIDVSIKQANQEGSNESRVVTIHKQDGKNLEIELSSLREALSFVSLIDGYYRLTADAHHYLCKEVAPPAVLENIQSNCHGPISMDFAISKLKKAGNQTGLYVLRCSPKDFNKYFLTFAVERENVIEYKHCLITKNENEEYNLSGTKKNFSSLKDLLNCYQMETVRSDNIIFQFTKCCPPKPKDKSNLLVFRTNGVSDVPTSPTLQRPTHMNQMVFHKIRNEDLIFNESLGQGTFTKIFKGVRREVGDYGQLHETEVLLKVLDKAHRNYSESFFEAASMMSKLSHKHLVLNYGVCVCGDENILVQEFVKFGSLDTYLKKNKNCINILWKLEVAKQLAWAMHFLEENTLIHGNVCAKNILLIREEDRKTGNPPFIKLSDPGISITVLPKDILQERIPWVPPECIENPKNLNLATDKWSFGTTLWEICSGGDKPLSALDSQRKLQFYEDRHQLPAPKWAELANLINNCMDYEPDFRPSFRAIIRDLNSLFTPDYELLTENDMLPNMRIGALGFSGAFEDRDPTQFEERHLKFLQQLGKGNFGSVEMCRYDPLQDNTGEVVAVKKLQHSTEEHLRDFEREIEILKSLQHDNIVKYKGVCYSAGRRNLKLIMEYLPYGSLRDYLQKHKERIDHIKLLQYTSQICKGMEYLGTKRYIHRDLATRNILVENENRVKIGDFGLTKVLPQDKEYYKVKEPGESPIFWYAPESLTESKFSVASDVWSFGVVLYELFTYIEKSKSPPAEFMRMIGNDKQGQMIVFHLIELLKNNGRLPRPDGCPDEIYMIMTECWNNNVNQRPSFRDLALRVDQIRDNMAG

KDR (human) = KDR (human) (UniProt P35968)
[2] = tested on: KIT (human), P10721 [A829P]
LIMK2 (human) = LIMK2 (human) (UniProt P53671)
LTK (human) = LTK (human) (UniProt P29376)
MAP2K7 (human) = MAP2K7 (human) (UniProt O14733)
Chain of MAP2K7 (human) (O14733 whole entry, looked up): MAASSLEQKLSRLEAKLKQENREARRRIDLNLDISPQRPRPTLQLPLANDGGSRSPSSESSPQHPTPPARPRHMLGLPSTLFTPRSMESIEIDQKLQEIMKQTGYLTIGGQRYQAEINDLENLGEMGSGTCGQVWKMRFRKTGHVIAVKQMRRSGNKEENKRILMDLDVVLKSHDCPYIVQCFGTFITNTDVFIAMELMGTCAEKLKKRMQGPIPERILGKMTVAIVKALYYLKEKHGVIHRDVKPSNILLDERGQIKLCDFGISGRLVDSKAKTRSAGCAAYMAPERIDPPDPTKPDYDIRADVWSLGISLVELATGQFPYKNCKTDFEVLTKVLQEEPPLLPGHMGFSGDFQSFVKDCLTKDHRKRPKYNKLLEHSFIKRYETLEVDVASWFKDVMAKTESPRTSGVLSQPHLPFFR

MAP3K5 (human) = MAP3K5 (human) (UniProt Q99683)
MARK3 (human) = MARK3 (human) (UniProt P27448)
MLTK (human) = MLTK (human) (UniProt Q9NYL2)
NIM1 (human) = NIM1 (human) (UniProt Q8IY84)
PDPK1 (human) = PDPK1 (human) (UniProt O15530)
PIK3C2B (human) = PIK3C2B (human) (UniProt O00750)
PLK2 (human) = PLK2 (human) (UniProt Q9NYY3)
RIOK1 (human) = RIOK1 (human) (UniProt Q9BRS2)
RIPK1 (human) = RIPK1 (human) (UniProt Q13546)
ROS1 (human) = ROS1 (human) (UniProt P08922)
RPS6KA2 KD1 (human) = RPS6KA2 KD1 (human) (UniProt Q15349)
RPS6KA6 KD1 (human) = RPS6KA6 KD1 (human) (UniProt Q9UK32)
SGK3 (human) = SGK3 (human) (UniProt Q96BR1)
Chain of SGK3 (human) (Q96BR1 whole entry, looked up): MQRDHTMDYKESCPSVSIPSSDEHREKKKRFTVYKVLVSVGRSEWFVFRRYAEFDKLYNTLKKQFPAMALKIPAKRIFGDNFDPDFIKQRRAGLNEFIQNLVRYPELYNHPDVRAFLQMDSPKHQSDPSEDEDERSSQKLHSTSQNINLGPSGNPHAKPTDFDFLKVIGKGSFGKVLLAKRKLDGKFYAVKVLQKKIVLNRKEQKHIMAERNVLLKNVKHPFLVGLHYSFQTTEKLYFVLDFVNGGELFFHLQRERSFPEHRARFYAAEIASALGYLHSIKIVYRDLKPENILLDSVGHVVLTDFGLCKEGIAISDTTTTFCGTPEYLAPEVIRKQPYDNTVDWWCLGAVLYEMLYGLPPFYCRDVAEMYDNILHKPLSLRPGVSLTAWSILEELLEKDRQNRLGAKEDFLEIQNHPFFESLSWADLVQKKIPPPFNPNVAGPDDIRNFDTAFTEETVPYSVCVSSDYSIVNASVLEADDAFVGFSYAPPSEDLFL

STK11 (human) = STK11 (human) (UniProt Q15831)
STK17A (human) = STK17A (human) (UniProt Q9UEE5)
STK24 (human) = STK24 (human) (UniProt Q9Y6E0)
STK25 (human) = STK25 (human) (UniProt O00506)
Chain of STK25 (human) (O00506 whole entry, looked up): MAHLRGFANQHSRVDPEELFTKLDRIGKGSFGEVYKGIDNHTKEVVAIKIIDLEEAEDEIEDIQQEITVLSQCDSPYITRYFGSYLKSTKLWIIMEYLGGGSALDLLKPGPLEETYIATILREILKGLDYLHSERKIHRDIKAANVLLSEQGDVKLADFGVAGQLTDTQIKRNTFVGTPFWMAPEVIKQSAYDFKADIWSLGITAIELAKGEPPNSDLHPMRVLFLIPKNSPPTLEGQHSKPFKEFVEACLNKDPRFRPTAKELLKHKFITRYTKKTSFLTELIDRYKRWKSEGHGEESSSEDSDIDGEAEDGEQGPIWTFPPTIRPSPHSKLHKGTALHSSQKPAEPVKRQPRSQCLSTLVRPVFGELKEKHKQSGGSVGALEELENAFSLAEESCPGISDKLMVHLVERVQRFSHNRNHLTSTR

STK36 (human) = STK36 (human) (UniProt Q9NRP7)
Chain of STK36 (human) (Q9NRP7 whole entry, looked up): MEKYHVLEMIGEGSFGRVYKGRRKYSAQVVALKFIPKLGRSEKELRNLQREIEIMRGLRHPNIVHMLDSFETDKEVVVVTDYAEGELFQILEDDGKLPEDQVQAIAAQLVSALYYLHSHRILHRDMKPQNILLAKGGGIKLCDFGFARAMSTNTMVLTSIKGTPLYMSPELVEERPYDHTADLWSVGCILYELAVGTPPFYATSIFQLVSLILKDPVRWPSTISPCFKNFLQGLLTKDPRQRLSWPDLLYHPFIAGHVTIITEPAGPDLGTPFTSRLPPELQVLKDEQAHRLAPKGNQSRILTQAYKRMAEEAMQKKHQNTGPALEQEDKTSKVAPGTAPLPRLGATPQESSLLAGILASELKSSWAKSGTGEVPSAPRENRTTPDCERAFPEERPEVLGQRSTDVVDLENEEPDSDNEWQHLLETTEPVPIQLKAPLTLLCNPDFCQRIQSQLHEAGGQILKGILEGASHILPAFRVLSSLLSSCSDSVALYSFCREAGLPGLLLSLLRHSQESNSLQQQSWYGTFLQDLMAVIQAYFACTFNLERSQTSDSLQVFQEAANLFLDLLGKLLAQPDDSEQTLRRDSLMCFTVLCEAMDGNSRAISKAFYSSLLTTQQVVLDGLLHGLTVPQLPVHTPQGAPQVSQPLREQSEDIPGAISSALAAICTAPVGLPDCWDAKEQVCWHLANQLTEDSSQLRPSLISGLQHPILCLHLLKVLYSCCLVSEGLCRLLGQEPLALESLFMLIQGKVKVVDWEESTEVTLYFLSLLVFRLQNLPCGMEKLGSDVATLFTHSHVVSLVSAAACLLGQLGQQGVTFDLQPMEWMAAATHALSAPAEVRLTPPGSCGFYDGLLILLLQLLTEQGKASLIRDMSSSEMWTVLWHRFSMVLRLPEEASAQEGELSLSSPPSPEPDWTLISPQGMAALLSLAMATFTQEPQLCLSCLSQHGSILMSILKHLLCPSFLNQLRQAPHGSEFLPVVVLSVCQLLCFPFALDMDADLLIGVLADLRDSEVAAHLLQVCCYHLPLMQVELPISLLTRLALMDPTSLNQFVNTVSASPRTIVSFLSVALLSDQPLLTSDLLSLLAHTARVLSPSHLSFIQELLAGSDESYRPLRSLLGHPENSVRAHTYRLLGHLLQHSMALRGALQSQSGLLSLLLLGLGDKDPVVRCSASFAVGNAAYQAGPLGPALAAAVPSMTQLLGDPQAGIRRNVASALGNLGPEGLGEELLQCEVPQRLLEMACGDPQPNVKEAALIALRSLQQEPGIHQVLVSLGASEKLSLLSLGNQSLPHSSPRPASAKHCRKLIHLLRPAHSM

STK38 (human) = STK38 (human) (UniProt Q15208)
TBK1 (human) = TBK1 (human) (UniProt Q9UHD2)
TNNI3K (human) = TNNI3K (human) (UniProt Q59H18)
ALK (human) = ALK (human) (UniProt Q9UM73)

Chain of CSF1R (human) (P07333 whole entry, looked up): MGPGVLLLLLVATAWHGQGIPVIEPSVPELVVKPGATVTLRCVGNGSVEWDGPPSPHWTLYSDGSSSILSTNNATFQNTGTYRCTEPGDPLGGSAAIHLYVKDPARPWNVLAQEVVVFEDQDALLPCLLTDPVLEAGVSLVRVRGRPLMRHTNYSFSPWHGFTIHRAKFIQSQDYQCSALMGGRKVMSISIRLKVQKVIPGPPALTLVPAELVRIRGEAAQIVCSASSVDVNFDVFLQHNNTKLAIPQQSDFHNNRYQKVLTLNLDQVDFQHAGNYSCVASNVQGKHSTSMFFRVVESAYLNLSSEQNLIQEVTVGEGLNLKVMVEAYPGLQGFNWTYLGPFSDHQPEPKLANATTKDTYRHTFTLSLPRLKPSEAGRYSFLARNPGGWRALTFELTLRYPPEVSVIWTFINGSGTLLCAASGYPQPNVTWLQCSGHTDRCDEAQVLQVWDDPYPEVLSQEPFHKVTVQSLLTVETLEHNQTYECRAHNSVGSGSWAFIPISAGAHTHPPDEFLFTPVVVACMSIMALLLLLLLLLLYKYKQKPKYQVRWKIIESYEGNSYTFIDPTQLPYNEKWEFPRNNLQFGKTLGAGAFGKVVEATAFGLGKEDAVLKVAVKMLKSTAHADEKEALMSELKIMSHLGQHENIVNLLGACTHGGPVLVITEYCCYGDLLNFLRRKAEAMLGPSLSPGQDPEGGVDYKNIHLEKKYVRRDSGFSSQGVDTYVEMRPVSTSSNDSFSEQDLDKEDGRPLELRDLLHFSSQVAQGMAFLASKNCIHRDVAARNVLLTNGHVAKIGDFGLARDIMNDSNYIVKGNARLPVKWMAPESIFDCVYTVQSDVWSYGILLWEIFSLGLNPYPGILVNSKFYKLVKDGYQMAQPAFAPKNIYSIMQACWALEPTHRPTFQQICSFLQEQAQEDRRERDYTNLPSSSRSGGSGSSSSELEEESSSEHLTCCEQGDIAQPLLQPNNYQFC

SMILES | kinase still bound, per cent of control (AURKA (human)) [%] | kinase still bound, per cent of control (CDK14 (human)) [%] | kinase still bound, per cent of control (CDK9 (human)) [%] | kinase still bound, per cent of control (CHUK (human)) [%] | kinase still bound, per cent of control (CLK3 (human)) [%] | kinase still bound, per cent of control (CSF1R (human)) [%] | kinase still bound, per cent of control (DSTYK (human)) [%] | kinase still bound, per cent of control (EPHA2 (human)) [%] | kinase still bound, per cent of control (IKBKB (human)) [%] | kinase still bound, per cent of control [1] [%] | kinase still bound, per cent of control [2] [%] | kinase still bound, per cent of control (LIMK2 (human)) [%] | kinase still bound, per cent of control (MAP2K7 (human)) [%] | kinase still bound, per cent of control (MARK3 (human)) [%] | kinase still bound, per cent of control (NIM1 (human)) [%] | kinase still bound, per cent of control (PIK3C2B (human)) [%] | kinase still bound, per cent of control (PLK2 (human)) [%] | kinase still bound, per cent of control (RIOK1 (human)) [%] | kinase still bound, per cent of control (RIPK1 (human)) [%] | kinase still bound, per cent of control (RPS6KA2 KD1 (human)) [%] | also measured
CCc1nc(-c2cccc(C)c2)c(-c2ccnc(NC(=O)c3ccccc3)c2)s1 | 90 | 99 | 95 | 100 | 78 | 76 | 100 | 66 | 100 | 100 | 100 | 94 | 100 | 72 | 100 | 100 | 100 | 100 | 95 | 100 | kinase still bound, per cent of control (FLT4 (human)): 27%; kinase still bound, per cent of control (GSK3B (human)): 60%; kinase still bound, per cent of control (KDR (human)): 38%; kinase still bound, per cent of control (LTK (human)): 26%; kinase still bound, per cent of control (MAP3K5 (human)): 100%; kinase still bound, per cent of control (MLTK (human)): 9.4%; kinase still bound, per cent of control (PDPK1 (human)): 89%; kinase still bound, per cent of control (ROS1 (human)): 69%; kinase still bound, per cent of control (RPS6KA6 KD1 (human)): 94%; kinase still bound, per cent of control (SGK3 (human)): 100%; kinase still bound, per cent of control (STK11 (human)): 96%; kinase still bound, per cent of control (STK17A (human)): 81%; kinase still bound, per cent of control (STK24 (human)): 69%; kinase still bound, per cent of control (STK25 (human)): 84%; kinase still bound, per cent of control (STK36 (human)): 4.8%; kinase still bound, per cent of control (STK38 (human)): 100%; kinase still bound, per cent of control (TBK1 (human)): 100%; kinase still bound, per cent of control (TNNI3K (human)): 86%
CC(=O)c1c(C)c2cnc(Nc3ccc(N4CCNCC4)cn3)nc2n(C2CCCC2)c1=O | 83 | 5 | 27 | 83 | 55 | 50 | 5 | 95 | 80 | 0.65 | 32 | 90 | 87 | 8 | 40 | 98 | 14 | 38 | 65 | 14 | kinase still bound, per cent of control (ALK (human)): 38%; kinase still bound, per cent of control (RPS6KA6 KD1 (human)): 20%; kinase still bound, per cent of control (SGK3 (human)): 53%; kinase still bound, per cent of control (STK11 (human)): 82%; kinase still bound, per cent of control (STK24 (human)): 16%; kinase still bound, per cent of control (STK25 (human)): 34%; kinase still bound, per cent of control (STK36 (human)): 78%; kinase still bound, per cent of control (STK38 (human)): 57%; kinase still bound, per cent of control (TBK1 (human)): 47%; kinase still bound, per cent of control (TNNI3K (human)): 98%
N#C/C(=C1/Nc2ccccc2S1)c1ccnc(NCCc2cccnc2)n1 | 100 | 100 | 60 | 42 | 76 | 98 | 51 | 80 | 68 | 45 | 73 | 96 | 100 | 100 | 100 | 19 | 47 | 30 | 100 | 100 | kinase still bound, per cent of control (ALK (human)): 100%; kinase still bound, per cent of control (FLT4 (human)): 100%; kinase still bound, per cent of control (GSK3B (human)): 0.15%; kinase still bound, per cent of control (KDR (human)): 100%; kinase still bound, per cent of control (LTK (human)): 100%; kinase still bound, per cent of control (MAP3K5 (human)): 100%; kinase still bound, per cent of control (MLTK (human)): 97%; kinase still bound, per cent of control (PDPK1 (human)): 100%; kinase still bound, per cent of control (ROS1 (human)): 100%; kinase still bound, per cent of control (RPS6KA6 KD1 (human)): 28%; kinase still bound, per cent of control (SGK3 (human)): 100%; kinase still bound, per cent of control (STK11 (human)): 77%; kinase still bound, per cent of control (STK17A (human)): 100%; kinase still bound, per cent of control (STK24 (human)): 80%; kinase still bound, per cent of control (STK25 (human)): 60%; kinase still bound, per cent of control (STK36 (human)): 100%; kinase still bound, per cent of control (STK38 (human)): 91%; kinase still bound, per cent of control (TBK1 (human)): 81%; kinase still bound, per cent of control (TNNI3K (human)): 93%
